Consider 1 molecule from US10512656B2, “Compositions and methods for the treatment of lysosomal storage disorders and disorders characterized by lysosomal dysfunction” (Baylor College of Medicine, priority 2016, dated 2019).

The subject of this assay is lysosomal genes. The assay can be described thus: Real-time qPCR in primary cortical neuron cultures. It is filed as cell-based, mouse. The conditions noted are these: cortical neurons from WT and Cln3^Δex7-8 embryos, 100 mM trehalose. As for the experimental part:
Cortical and Hippocampal neurons were prepared from E17.5 and postnatal day 0-1 mice and plated on poly-D-lysine coated six-well plates (BD Biosciences) in Neurobasal medium supplemented with GlutaMAX-I (Invitrogen), B-27 and 1% FBS. At days in vitro (DIV) 4, neurons were treated with 100 mM trehalose. At DIV 8, neurons were collected and RNA extraction was performed.
Total RNA was extracted from the control and JNCL fibroblasts and from WT and Cln3^Δex7-8 cortical neuron cultures using the RNEasy kit (Qiagen) according to the manufacturer's instructions. Half of the mouse brain was processed for the RNA extraction and one microgram was used for complementary DNA synthesis by QuantiTect Reverse Transcription kit (Qiagen). The primers for PCR with reverse transcription reactions are listed in Table St Quantitative real-time PCR was performed by using iQ SYBR Green Supermix on the CFX96 Touch Real-Time Detection System (Bio-Rad Laboratories). Samples were heated for 3 min at 95° C. and amplified in 39 cycles for 11 s at 95° C., 45 s at 60° C. with last cycle of 10 s at 95° C., 5 s at 65° C. and 5 s at 95° C. Analyses were conducted using CFX manager software (Bio-Rad) and the threshold cycle (CT) was extracted from the PCR amplification plot. Relative gene expression was determined using the ΔΔCT method, normalizing to GAPDH (for human genes) and cyclophilin (for mouse genes). […]
On the technique in general: Quantitative PCR measures a nucleic acid by following its amplification.

For `OC[C@H]1O[C@H](O[C@H]2O[C@H](CO)[C@@H](O)[C@H](O)[C@H]2O)[C@H](O)[C@@H](O)[C@@H]1O` [trehalose, a-D-glucopyranosyl a-D-glucopyranoside], the “expression of lysosomal genes” value is on record as “transcriptional activation of lysosomal genes”.
